Test results reported in the supplement of paper PMC10307832.

Assays:
Experiment in all cases: relative viability (nuclei count vs DMSO), 5 days (fraction); higher = more cells survive
NCI-H322M = test system: NCI-H322M
Method in brief: (§1)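 Cells from lung cancer lines were seeded into 1536-well plates and, one day later, dosed by pin tool. Treatments were either a single drug or a fixed dose of an anchor drug with five library-drug doses (not always all listed) in √10 steps. After 5 days, nuclei were stained in a one-step fixation (final 0.05% Triton X-100, 1% formaldehyde, 1 ug/ml Hoechst) and counted on 4× images, and relative viability is the treated-to-vehicle nuclei ratio, as the median of duplicate plates.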

NCI-H661 = test system: NCI-H661
Method in brief: as §1

RERF-LC-KJ = test system: RERF-LC-KJ
Method in brief: as §1

NCI-H1734 = test system: NCI-H1734
Method in brief: as §1

H3255 = test system: H3255
Method in brief: as §1

NCI-H1563 = test system: NCI-H1563
Method in brief: as §1

LK-2 = test system: LK-2
Method in brief: as §1

HCC-827 = test system: HCC-827
Method in brief: as §1

HCC-15 = test system: HCC-15
Method in brief: as §1

NCI-H1355 = test system: NCI-H1355
Method in brief: as §1

PC-14 = test system: PC-14
Method in brief: as §1

NCI-H1650 = test system: NCI-H1650
Method in brief: as §1

## Clc1ccc(Nc2nnc(Cc3ccncc3)c3ccccc23)cc1 [Vatalanib] + CCNC(=O)c1noc(-c2cc(C(C)C)c(O)cc2O)c1-c1ccc(CN2CCOCC2)cc1 [Luminespib] (partner 0.01 µM)
NCI-H322M; first compound 0.1265 µM
  relative viability: 0.798
NCI-H322M; first compound 0.4 µM
  relative viability: 0.877
NCI-H322M; first compound 1.265 µM
  relative viability: 0.793
NCI-H322M; first compound 4 µM
  relative viability: 0.909
NCI-H661; first compound 0.04 µM
  relative viability: 0.887
NCI-H661; first compound 0.1265 µM
  relative viability: 0.91
NCI-H661; first compound 0.4 µM
  relative viability: 0.998
NCI-H661; first compound 1.265 µM
  relative viability: 0.89
NCI-H661; first compound 4 µM
  relative viability: 0.931
RERF-LC-KJ; first compound 0.04 µM
  relative viability: 1.17
RERF-LC-KJ; first compound 0.1265 µM
  relative viability: 1.22
RERF-LC-KJ; first compound 0.4 µM
  relative viability: 1.2
RERF-LC-KJ; first compound 1.265 µM
  relative viability: 1.05
RERF-LC-KJ; first compound 4 µM
  relative viability: 1.07
NCI-H1734; first compound 0.04 µM
  relative viability: 0.224
NCI-H1734; first compound 0.1265 µM
  relative viability: 0.153
NCI-H1734; first compound 0.4 µM
  relative viability: 0.193
NCI-H1734; first compound 1.265 µM
  relative viability: 0.167
NCI-H1734; first compound 4 µM
  relative viability: 0.192
H3255; first compound 0.04 µM
  relative viability: 0.881
H3255; first compound 0.1265 µM
  relative viability: 0.91
H3255; first compound 0.4 µM
  relative viability: 0.82
H3255; first compound 1.265 µM
  relative viability: 0.743
H3255; first compound 4 µM
  relative viability: 0.838
NCI-H1563; first compound 0.04 µM
  relative viability: 0.493
NCI-H1563; first compound 0.1265 µM
  relative viability: 0.539
NCI-H1563; first compound 0.4 µM
  relative viability: 0.519
NCI-H1563; first compound 1.265 µM
  relative viability: 0.495
NCI-H1563; first compound 4 µM
  relative viability: 0.56
LK-2; first compound 0.04 µM
  relative viability: 0.185
LK-2; first compound 0.1265 µM
  relative viability: 0.217
LK-2; first compound 0.4 µM
  relative viability: 0.188
LK-2; first compound 1.265 µM
  relative viability: 0.202
LK-2; first compound 4 µM
  relative viability: 0.182
HCC-827; first compound 0.04 µM
  relative viability: 0.53
HCC-827; first compound 0.1265 µM
  relative viability: 0.614
HCC-827; first compound 0.4 µM
  relative viability: 0.494
HCC-827; first compound 1.265 µM
  relative viability: 0.638
HCC-827; first compound 4 µM
  relative viability: 0.611
HCC-15; first compound 0.04 µM
  relative viability: 0.42
HCC-15; first compound 0.1265 µM
  relative viability: 0.457
HCC-15; first compound 0.4 µM
  relative viability: 0.181
HCC-15; first compound 1.265 µM
  relative viability: 0.234
HCC-15; first compound 4 µM
  relative viability: 0.235
NCI-H1355; first compound 0.04 µM
  relative viability: 0.74
NCI-H1355; first compound 0.1265 µM
  relative viability: 0.675
NCI-H1355; first compound 0.4 µM
  relative viability: 0.748
NCI-H1355; first compound 1.265 µM
  relative viability: 0.656
NCI-H1355; first compound 4 µM
  relative viability: 0.738
PC-14; first compound 0.04 µM
  relative viability: 0.155
PC-14; first compound 0.1265 µM
  relative viability: 0.19
PC-14; first compound 1.265 µM
  relative viability: 0.158
PC-14; first compound 4 µM
  relative viability: 0.149
NCI-H1650; first compound 0.04 µM
  relative viability: 0.21
NCI-H1650; first compound 0.1265 µM
  relative viability: 0.193
NCI-H1650; first compound 0.4 µM
  relative viability: 0.206
NCI-H1650; first compound 1.265 µM
  relative viability: 0.203
NCI-H1650; first compound 4 µM
  relative viability: 0.208
